Assay results: patent US10028942B2 (priority 2013, dated 2018)

Biological target: T1, DLK (Homo sapiens, UniProt Q12852)
T1 sequence (Q12852 1-520): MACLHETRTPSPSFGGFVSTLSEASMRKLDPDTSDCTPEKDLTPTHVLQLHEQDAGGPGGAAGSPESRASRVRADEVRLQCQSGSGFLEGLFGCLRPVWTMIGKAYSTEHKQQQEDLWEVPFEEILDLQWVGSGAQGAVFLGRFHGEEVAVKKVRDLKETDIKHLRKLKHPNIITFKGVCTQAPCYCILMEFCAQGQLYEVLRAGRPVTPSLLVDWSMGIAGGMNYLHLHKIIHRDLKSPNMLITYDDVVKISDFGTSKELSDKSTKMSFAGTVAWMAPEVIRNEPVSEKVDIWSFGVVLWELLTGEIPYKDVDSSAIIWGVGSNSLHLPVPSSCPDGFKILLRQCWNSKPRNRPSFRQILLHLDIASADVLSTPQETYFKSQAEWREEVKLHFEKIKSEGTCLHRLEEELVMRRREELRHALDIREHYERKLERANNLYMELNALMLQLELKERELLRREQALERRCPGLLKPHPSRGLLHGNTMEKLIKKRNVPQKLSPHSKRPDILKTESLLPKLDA
Conditions: read-out: DLK (Ki) μM; TR-FRET; 5 nM GST-tagged DLK (catalytic domain aa 1-520), 40 nM HIS-MKK4 K131M substrate, 30 μM ATP, 60 minutes

| SMILES | Ki |
| --- | --- |
| CC(C)OC(=O)N1C[C@@H]2[C@H](C1)[C@H]2c1cc(-c2cnc(N)c(C(F)(F)F)c2)nn1C(C)C [Compound 130, (1R,5S,6r)-isopropyl 6-(3-(6-amino-5-(trifluoromethyl)pyr-ridin-3-yl)-1-isopropyl-1H-pyrazol-5-yl)-3-azabicyclo[3.1.0]hexane-3-car-boxylate] | 0.0056 µM |
| CC(C)n1nc(-c2cnc(N)c3cn[nH]c23)cc1[C@H]1[C@@H]2CN(CC(F)(F)F)C[C@@H]21 [Compound 114, 7-(1-isopropyl-5-((1R,5S,6r)-3-(2,2,2-trifluoroethyl)-3-azabicyclo[3.1.0]hexan-6-yl)-1H-pyrazol-3-yl)-1H-py-razolo[4,3-c]pyridin-4-amine] | 0.96 µM |
| COc1cc(-c2cc([C@H]3[C@@H]4CN(C5COC5)C[C@@H]43)n(C3CCCC3)n2)cnc1N [Compound 157, 5-(1-cyclopentyl-5-((1R,5S,6r)-3-(oxe-tan-3-yl)-3-azabicyclo[3.1.0]hexan-6-yl)-1H-pyrazol-3-yl)-3-methoxy-pyridin-2-amine] | 0.035 µM |
| CN1CCC(c2cc(-c3cnc(N)c(Cl)c3)nn2C2CC(F)(F)C2)CC1=O (stereo not drawn) [Compound 43, 4-(3-(6-amino-5-chloropyridin-3-yl)-1-(3,3-difluorocyclobutyl)-1H-pyra-zol-5-yl)-1-methylpiperidin-2-one] | 0.06 µM |
| CC(C)n1nc(-c2cnc3c(c2)C(C)(C)CN3)cc1C1CCN(C2COC2)CC1 [Compound 95, 5-(1-isopropyl-5-(1-(oxetan-3-yl)piperidin-4-yl)-1H-pyrazol-3-yl)-3,3-dimethyl-2,3-dihydro-1H-pyrrolo[2,3-b]pyridine] | 1.2 µM |
| COCCN1C[C@@H]2[C@H](C1)[C@H]2c1cc(-c2cnc(N)c(C(F)(F)F)c2)nn1CC1CCC1 [Compound 124, 5-(1-(cyclobutylmethyl)-5-((1R,5S,6r)-3-(2-methoxyethyl)-3-azabicyclo [3.1.0]hexan-6-yl)-1H-pyrazol-3-yl)-3-(trifluoromethyl)pyridin-2-amine] | 0.027 µM |
| Nc1ncc(-c2cc([C@H]3[C@@H]4CN(C5COC5)C[C@@H]43)n(C3CCCC3)n2)cc1C(F)F [Compound 171, 5-(1-cyclopentyl-5-((1R,5S,6r)-3-(oxe-tan-3-yl)-3-azabicyclo[3.1.0]hexan-6-yl)-1H-pyrazol-3-yl)-3-(difluoro-methyl)pyridin-2-amine] | 0.016 µM |
| CC(C)n1nc(-c2cnc(N)c(OC(F)F)c2)cc1[C@H]1[C@@H]2CN(CC(F)(F)F)C[C@@H]21 [Compound 110, 3-(difluoromethoxy)-5-(1-isopropyl-5-((1R,5S,6r)-3-(2,2,2-trifluoroethyl)-3-azabicyclo[3.1.0]hexan-6-yl)-1H-pyrazol-3-yl)pyridin-2-amine] | 0.0045 µM |
| COc1cc(-c2cc(C3CCN(C4COC4)CC3)n(C(C)C)n2)cnc1N [Compound 89, 5-(1-isopropyl-5-(1-(oxetan-3-yl)pipe-ridin-4-yl)-1H-pyrazol-3-yl)-3-meth-oxypyridin-2-amine] | 0.14 µM |
| CC(C)n1nc(-c2cnc(N)c(OC(F)F)c2)cc1[C@H]1[C@@H]2CN(C3COC3)C[C@@H]21 [Compound 141, 3-(difluoromethoxy)-5-(1-isopropyl-5-((1R,5S,6r)-3-(oxetan-3-yl)-3-aza-bicyclo[3.1.0]hexan-6-yl)-1H-pyrazol-3-yl)pyridin-2-amine] | 0.008 µM |
| CC(C)n1nc(-c2cnc(N)c(C(F)(F)F)c2)cc1C(C)(C)O [Compound 2, 2-(3-(6-amino-5-(trifluoromethyl)py-ridin-3-yl)-1-isopropyl-1H-pyrazol-5-yl)propan-2-ol] | 0.11 µM |
| CC(=O)N1CCC(c2cc(-c3cnc4[nH]cc(C)c4c3)nn2C(C)C)CC1 [Compound 49, 1-(4-(1-isopropyl-3-(3-methyl-1H-pyrrolo[2,3-b]pyridin-5-yl)-1H-pyrazol-5-yl)piperidin-1-yl)ethanone] | 0.019 µM |
| CCc1c[nH]c2ncc(-c3cc(C4CCOC4)n(C4CC(F)(F)C4)n3)cc12 (stereo not drawn) [Compound 20, 5-(1-(3,3-difluorocyclobutyl)-5-(tetra-hydrofuran-3-yl)-1H-pyrazol-3-yl)-3-ethyl-1H-pyrrolo[2,3-b]pyridine] | 0.025 µM |
| Nc1ncc(-c2cc([C@H]3[C@@H]4CN(C5COC5)C[C@@H]43)n(CC3CCC3)n2)cc1C(F)(F)F [Compound 160, 5-(1-(cyclobutylmethyl)-5-((1R,5S,6r)-3-(oxetan-3-yl)-3-azabicyclo[3.1.0]hexan-6-yl)-1H-pyrazol-3-yl)-3-(tri-fluoromethyl)pyridin-2-amine] | 0.0081 µM |
| CC(C)n1nc(-c2cnc(N)c(C(F)(F)F)c2)cc1C1CCN(C)CC1 [Compound 41, 5-(1-isopropyl-5-(1-methylpiperidin-4-yl)-1H-pyrazol-3-yl)-3-(trifluoromethyl)pyridin-2-amine] | 0.045 µM |
| CC(C)Oc1cc(-c2cc(C3CCN(C4COC4)CC3)n(C3CCC(F)(F)C3)n2)cnc1N (stereo not drawn) [Compound 86, 5-(1-(3,3-difluorocyclopentyl)-5-(1-(oxetan-3-yl)piperidin-4-yl)-1H-pyra-zol-3-yl)-3-isopropoxypyridin-2-amine] | 0.91 µM |
| CC(C)n1nc(-c2cnc(N)c(C(F)(F)F)c2)cc1[C@H]1[C@@H]2CN(CCC#N)C[C@@H]21 [Compound 127, 3-((1R,5S,6r)-6-(3-(6-amino-5-(trifluoro-methyl)pyridin-3-yl)-1-isopropyl-1H-pyrazol-5-yl)-3-azabicyclo[3.1.0]hexan-3-yl)propanenitrile] | 0.0059 µM |
| FC1(F)CC(n2nc(-c3cnc4[nH]cc(C(F)(F)F)c4c3)cc2C2CCOCC2)C1 [Compound 38, 5-(1-(3,3-difluroocyclobutyl)-5-(tetra-hydro-2H-pyran-4-yl)-1H-pyrazol-3-yl)-3-(trifluoromethyl)-1H-pyrrolo [2,3-b]pyridine] | 0.058 µM |
| Cc1c[nH]c2ncc(-c3cc(C4CCN(C5COC5)C4)n(C(C)C)n3)cc12 (stereo not drawn) [Compound 64, 5-(1-isopropyl-5-(1-(oxetan-3-yl)pyr-rolidin-3-yl)-1H-pyrazol-3-yl)-3-meth-yl-1H-pyrrolo[2,3-b]pyridine] | 0.0045 µM |
| COCCN1C[C@@H]2[C@H](C1)[C@H]2c1cc(-c2cnc(N)c(Cl)c2)nn1CC1CC1(F)F (stereo partly drawn) [Compound 121, 3-chloro-5-(1-((2,2-difluorocyclopro-pyl)methyl)-5-((1R,5S,6r)-3-(2-meth-oxyethyl)-3-azabicyclo[3.1.0]hexan-6-yl)-1H-pyrazol-3-yl)pyridin-2-amine] | 0.09 µM |
| CC(=O)N1CCC(c2cc(-c3cnc4[nH]cc(C)c4c3)nn2C)CC1 [Compound 47, 1-(4-(1-methyl-3-(3-methyl-1H-pyrro-lo[2,3-b]pyridin-5-yl)-1H-pyrazol-5-yl)piperidin-1-yl)ethanone] | 0.047 µM |
| CC(C)n1nc(-c2cnc(N)c(C(F)(F)F)c2)cc1[C@H]1[C@@H]2CN(CC(F)F)C[C@@H]21 [Compound 109, 5-(5-((1R,5S,6r)-3-(2,2-difluoroethyl)-3-azabicyclo[3.1.0]hexan-6-yl)-1-isopropyl-1H-pyrazol-3-yl)-3-(trifluoro-methyl)pyridin-2-amine] | 0.001 µM |
| Nc1ncc(-c2cc([C@H]3[C@@H]4CN(C5COC5)C[C@@H]43)n(C3CCCC3)n2)cc1C1CC1 [Compound 139, 5-(1-cyclopentyl-5-((1R,5S,6r)-3-(oxe-tan-3-yl)-3-azabicyclo[3.1.0]hexan-6-yl)-1H-pyrazol-3-yl)-3-cyclopro-pylpyridin-2-amine] | 0.037 µM |
| Nc1ncc(-c2cc([C@H]3[C@@H]4CN(C5COC5)C[C@@H]43)n(CC3CC3)n2)cc1C(F)(F)F [Compound 152, 5-(1-(cyclopropylmethyl)-5-((1R,5S,6r)-3-(oxetan-3-yl)-3-azabicyclo[3.1.0]hexan-6-yl)-1H-pyrazol-3-yl)-3-(tri-fluoromethyl)pyridin-2-amine] | 0.00017 µM |
| CCOc1cc(-c2cc(C3CCN(C4COC4)CC3)n(C3CCC(F)(F)C3)n2)cnc1N (stereo not drawn) [Compound 85, 5-(1-(3,3-difluorocyclopentyl)-5-(1-(oxetan-3-yl)piperidin-4-yl)-1H-pyra-zol-3-yl)-3-ethoxypyridin-2-amine] | 0.99 µM |
| CC(C)n1nc(-c2cnc3[nH]cc(F)c3c2)cc1C1CCN(C2COC2)C1 (stereo not drawn) [Compound 66, 3-fluoro-5-(1-isopropyl-5-(1-(oxetan-3-yl)pyrrolidin-3-yl)-1H-pyrazol-3-yl)-1H-pyrrolo[2,3-b]pyridine] | 0.11 µM |
| CCOc1cc(-c2cc(C3CCN(C4COC4)CC3)n(C(C)C)n2)cnc1N [Compound 83, 3-ethoxy-5-(1-isopropyl-5-(1-(oxetan-3-yl)piperidin-4-yl)-1H-pyrazol-3-yl)pyridin-2-amine] | 0.39 µM |
| CC(C)n1nc(-c2cnc(N)c(Cl)c2)cc1[C@H]1[C@@H]2CN(C3COC3)C[C@@H]21 [Compound 140, 3-chloro-5-(1-isopropyl-5-((1R,5S,6r)-3-(oxetan-3-yl)-3-azabicyclo[3.1.0]hexan-6-yl)-1H-pyrazol-3-yl)pyridin-2-amine] | 0.04 µM |
| Nc1ncc(-c2cc(C3CCN(C4COC4)CC3)n(C3CCCC3)n2)cc1Cl [Compound 71, 3-chloro-5-(1-cyclopentyl-5-(1-(oxetan-3-yl)piperidin-4-yl)-1H-pyrazol-3-yl)pyridin-2-amine] | 0.27 µM |
| CC(=O)N1CC(c2cc(-c3cnc4[nH]cc(C(F)(F)F)c4c3)nn2C)C1 [Compound 11, 1-(3-(1-methyl-3-(3-(trifluoromethyl)-1H-pyrrolo[2,3-b]pyridin-5-yl)-1H-pyrazol-5-yl)azetidin-1-yl)ethanone] | 0.034 µM |
